Target: canine TRPM8 (Canis lupus familiaris, UniProt Q1A7N1)
Test: In Vitro Canine TRPM8 Functional Assay (Ca2+ fluorescence, icilin activation)
Type: cell-based
Details: for inhibition at 0.2 µM / % Inh @ 0.2 (μM): compound at 0.2 μM, canine TRPM8, icilin activation; for inhibition at 0.2 µM: read-out: % Inh @ 0.2; for IC50: HEK293 cells stably expressing canine TRPM8, icilin activation, eight-point dose-response, read-out: IC50
Outline: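 Cells (HEK293, stable canine TRPM8) are seeded 24 h before assay. They are then dye-loaded with Calcium 3 at 37 °C followed by room temperature. Compound is added and monitored for 5 min, after which icilin (~80% maximal response) is added.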

Chain of canine TRPM8 (Q1A7N1 1-1104): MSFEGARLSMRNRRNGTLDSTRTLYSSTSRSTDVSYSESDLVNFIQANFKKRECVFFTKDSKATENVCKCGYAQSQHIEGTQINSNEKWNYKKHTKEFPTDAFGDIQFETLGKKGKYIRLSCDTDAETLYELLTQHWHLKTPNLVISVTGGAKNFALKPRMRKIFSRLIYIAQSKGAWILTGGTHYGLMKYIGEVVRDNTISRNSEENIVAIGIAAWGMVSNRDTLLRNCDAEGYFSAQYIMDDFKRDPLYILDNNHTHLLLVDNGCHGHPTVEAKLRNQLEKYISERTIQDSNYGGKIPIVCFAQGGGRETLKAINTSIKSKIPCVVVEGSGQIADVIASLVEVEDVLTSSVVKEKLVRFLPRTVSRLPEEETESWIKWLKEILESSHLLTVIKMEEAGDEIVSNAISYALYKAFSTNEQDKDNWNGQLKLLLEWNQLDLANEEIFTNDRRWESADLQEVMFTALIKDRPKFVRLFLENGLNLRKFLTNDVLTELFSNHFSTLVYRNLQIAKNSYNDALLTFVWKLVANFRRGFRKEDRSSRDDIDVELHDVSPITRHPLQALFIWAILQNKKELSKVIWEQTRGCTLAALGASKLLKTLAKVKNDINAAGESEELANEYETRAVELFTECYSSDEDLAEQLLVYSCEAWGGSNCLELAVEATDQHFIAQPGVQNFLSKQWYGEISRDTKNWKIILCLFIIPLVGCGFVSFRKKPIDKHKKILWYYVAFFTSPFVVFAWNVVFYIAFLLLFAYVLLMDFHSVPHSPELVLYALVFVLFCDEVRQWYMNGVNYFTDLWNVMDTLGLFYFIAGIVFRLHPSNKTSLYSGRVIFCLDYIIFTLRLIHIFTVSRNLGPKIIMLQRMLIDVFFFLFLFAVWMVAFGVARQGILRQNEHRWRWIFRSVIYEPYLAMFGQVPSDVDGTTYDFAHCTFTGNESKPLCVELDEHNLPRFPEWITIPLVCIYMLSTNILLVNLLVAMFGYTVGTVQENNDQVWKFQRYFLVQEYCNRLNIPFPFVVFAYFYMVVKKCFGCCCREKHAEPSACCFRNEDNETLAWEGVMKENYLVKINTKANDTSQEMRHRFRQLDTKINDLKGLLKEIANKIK

Compound	inhibition at 0.2 µM [%]	% Inh @ 0.2 (μM) [%]	IC50 [nM]
CCCCN(c1sc2ccccc2c1C(=O)N(C)C)S(=O)(=O)c1ccc(C(=O)O)cc1 [Compound 469, N-(Butyl)-N-(3-dimethylcarbamoyl-benzo[b]thiophen-2-yl)-4-carboxy-benzenesulfonamide]	13	–	–
CCCCN(c1cc2ccccc2s1)S(=O)(=O)c1ccc(C2=NOS(=O)N2)cc1 (stereo not shown) [Compound 470, N-(Benzo[b]thiophen-2-yl)-N-(butyl)-4-(3H-[1,2,3,5]oxathiadiazole-2-oxide)-benzenesulfonamide]	–	15	–
CCCCN(c1cc2ccccc2s1)S(=O)(=O)c1ccc(C(N)=NO)cc1 [Compound 471, N-(Benzo[b]thiophen-2-yl)-N-(butyl)-4-N-hydroxy-benzamidinesulfonamide]	–	97	59
CCCCN(c1cc2ccccc2s1)S(=O)(=O)c1ccc(C(N)=NC(=O)CO)cc1 [Compound 472, N-(Benzo[b]thiophen-2-yl)-N-(butyl)-4-N-hydroxyacetyl-benzamidine sulfonamide]	–	88	40
CCCCN(c1sc2ccccc2c1Br)S(=O)(=O)c1ccc(C(N)=NO)cc1 [Compound 473, N-(3-Bromo-benzo[b]thiophen-2-yl)-N-(butyl)-4-N-hydroxy-benzamidinesulfonamide]	–	102	9
O=S(=O)(c1ccc(-c2nnn[nH]2)cc1)N(CC1CC1)c1sc2ccccc2c1Br [Compound 474, N-(3-Bromo-benzo[b]thiophen-2-yl)-N-(cyclopropyl-methyl)-4-(1H-tetrazol-5-yl)-benzenesulfonamide]	101	–	8
O=S(=O)(c1ccc(-c2nnn[nH]2)cc1)N(Cc1ccc(F)c(C(F)(F)F)c1)c1sc2ccccc2c1Br [Compound 475, N-(3-Bromo-benzo[b]thiophen-2-yl)-N-(4-fluoro-3-trifluoromethyl-benzyl)-4-(1H-tetrazol-5-yl)-benzenesulfonamide]	102	–	2
O=S(=O)(c1ccc(Br)cc1)N(CCC(F)(F)F)c1cc2ccccc2s1 [Compound 476, N-(Benzo[b]thiophen-2-yl)-4-(bromo)-N-(3,3,3-trifluoro-propyl)-benzenesulfonamide]	39	–	–
CCCCN(c1sc2ccccc2c1Cl)S(=O)(=O)c1ccc(C(=O)O)cc1 [Compound 477, N-(3-Chloro-benzo[b]thiophen-2-yl)-N-(butyl)-4-carboxy-benzenesulfonamide]	100	–	12
O=C(O)c1ccc(S(=O)(=O)N(CC2CC2)c2sc3ccccc3c2Cl)cc1 [Compound 478, N-(3-Chloro-benzo[b]thiophen-2-yl)-N-(cyclopropylmethyl)-4-carboxy-benzenesulfonamide]	99	–	25
O=C(O)c1ccc(S(=O)(=O)N(CCC(F)(F)F)c2sc3ccccc3c2Cl)cc1 [Compound 480, N-(3-Chloro-benzo[b]thiophen-2-yl)-N-(3,3,3-trifluoro-propyl)-4-carboxy-benzenesulfonamide]	100	–	13
CCCCN(c1sc2ccccc2c1Br)S(=O)(=O)c1ccc(-c2noc(=S)[nH]2)cc1 [Compound 481, N-(3-Bromo-benzo[b]thiophen-2-yl)-N-(butyl)-4-(5-thioxo-4,5-dihydro-[1,2,4]oxadiazol-3-yl)-benzenesulfonamide]	69	–	–
N/C(=N\O)c1ccc(S(=O)(=O)N(Cc2ccc(F)c(C(F)(F)F)c2)c2cc3ccccc3s2)cc1 [Compound 482, N-(Benzo[b]thiophen-2-yl)-N-(4-fluoro-3-trifluoromethyl-benzyl)-4-N-hydroxy-benzamidinesulfonamide]	–	100	24
O=c1[nH]c(-c2ccc(S(=O)(=O)N(Cc3ccc(F)c(C(F)(F)F)c3)c3cc4ccccc4s3)cc2)no1 [Compound 483, N-(Benzo[b]thiophen-2-yl)-N-(4-fluoro-3-trifluoromethyl-benzyl)-4-(5-oxo-4,5-dihydro-[1,2,4]oxadiazol-3-yl)-benzenesulfonamide]	101	–	9
CCCCN(c1sc2ccccc2c1Br)S(=O)(=O)c1ccc(C2=NOS(=O)N2)cc1 (stereo not shown) [Compound 484, N-(3-Bromo-benzo[b]thiophen-2-yl)-N-(butyl)-4-(3H-[1,2,3,5]oxathiadiazole-2-oxide)-benzenesulfonamide]	–	100	21
CCCCN(c1sc2ccccc2c1Cl)S(=O)(=O)c1ccc(C2=NOS(=O)N2)cc1 (stereo not shown) [Compound 485, N-(3-Chloro-benzo[b]thiophen-2-yl)-N-(butyl)-4-(3H-[1,2,3,5]oxathiadiazole-2-oxide)-benzenesulfonamide]	–	96	21
Cc1c(N(Cc2ccccc2)S(=O)(=O)c2ccc(C(=O)O)cc2)sc2ccccc12 [Compound 486, N-(3-Methyl-benzo[b]thiophen-2-yl)-N-(benzyl)-4-carboxy-benzenesulfonamide]	100	–	–

Compound	inhibition at 0.2 µM [%]	% Inh @ 0.2 (μM) [%]	IC50 [nM]
Cc1c(N(Cc2cccc(C(F)(F)F)c2)S(=O)(=O)c2ccc(C(=O)O)cc2)sc2ccccc12 [Compound 491, N-(3-Methyl-benzo[b]thiophen-2-yl)-N-(3-trifluoromethyl-benzyl)-4-carboxy-benzenesulfonamide]	101	–	1
Cc1c(N(Cc2ccc(S(C)(=O)=O)cc2)S(=O)(=O)c2ccc(C(=O)O)cc2)sc2ccccc12 [Compound 492, N-(3-Methyl-benzo[b]thiophen-2-yl)-N-(4-methylsulfone-benzyl)-4-carboxy-benzenesulfonamide]	–	91	62
Cc1c(N(Cc2c(F)c(F)c(F)c(F)c2F)S(=O)(=O)c2ccc(C(=O)O)cc2)sc2ccccc12 [Compound 493, N-(3-Methyl-benzo[b]thiophen-2-yl)-N-(2,3,4,5,6-pentafluoro-benzyl)-4-carboxy-benzenesulfonamide]	101	–	0.8
Cc1c(N(Cc2ccc(S(=O)(=O)C(F)(F)F)cc2)S(=O)(=O)c2ccc(C(=O)O)cc2)sc2ccccc12 [Compound 494, N-(3-Methyl-benzo[b]thiophen-2-yl)-N-(4-trifluoromethylsulfone-benzyl)-4-carboxy-benzenesulfonamide]	–	101	0.9
Cc1c(N(Cc2cccnc2)S(=O)(=O)c2ccc(C(=O)O)cc2)sc2ccccc12 [Compound 495, N-(3-Methyl-benzo[b]thiophen-2-yl)-N-(pyridin-3-ylmethyl)-4-carboxy-benzenesulfonamide]	–	98	55
O=[N+]([O-])c1ccc(S(=O)(=O)N(CCC(F)(F)F)c2cc3ccccc3s2)cc1 [Compound 498, N-(Benzo[b]thiophen-2-yl)-4-nitro-N-(3,3,3-trifluoro-propyl)-benzenesulfonamide]	41	–	–
Nc1ccc(S(=O)(=O)N(CCC(F)(F)F)c2cc3ccccc3s2)cc1 [Compound 499, 4-Amino-N-(benzo[b]thiophen-2-yl)-N-(3,3,3-trifluoro-propyl)-benzenesulfonamide]	101	–	15
CCCCN(c1sc2ccccc2c1NC(C)=O)S(=O)(=O)c1ccc(C(=O)OC)cc1 [Compound 500, N-(3-Acetylamino-benzo[b]thiophen-2-yl)-N-(butyl)-4-carbomethoxy-benzenesulfonamide]	15	–	–
O=C(O)c1ccc(S(=O)(=O)N(Cc2ccc(F)c(C(F)(F)F)c2)c2sc3ccccc3c2C2CCCC2)cc1 [Compound 502, N-(3-Cyclopentyl-benzo[b]thiophen-2-yl)-N-(4-fluoro-3-trifluoromethyl-benzyl)-4-carboxy-benzenesulfonamide]	100	–	10
CCCCN(c1sc2ccccc2c1C(C)=O)S(=O)(=O)c1ccc(Br)cc1 [Compound 503, N-(3-Acetyl-benzo[b]thiophen-2-yl)-N-(butyl)-4-bromo-benzenesulfonamide]	96	–	47
COC(=O)c1ccc(S(=O)(=O)N(CCC(F)(F)F)c2sc3ccccc3c2C(C)(C)O)cc1 [Compound 504, N-(3-(1-Hydroxy-1-methyl-ethyl)-benzo[b]thiophen-2-yl)-N-(3,3,3-trifluoro-propyl)-4-carbomethoxy-benzenesulfonamide]	101	–	18
CCCCN(c1sc2ccccc2c1C(C)(C)O)S(=O)(=O)c1ccc(Br)cc1 [Compound 506, N-(Butyl)-N-(3-(1-hydroxy-1-methyl-ethyl)-benzo[b]thiophen-2-yl)-4-bromo-benzenesulfonamide]	100	–	31
CS(=O)(=O)Nc1ccc(S(=O)(=O)N(CCC(F)(F)F)c2cc3ccccc3s2)cc1 [Compound 507, N-(Benzo[b]thiophen-2-yl)-4-methanesulfonylamino-N-(3,3,3-trifluoro-propyl)-benzenesulfonamide]	92	–	34
CS(=O)(=O)Nc1c(N(Cc2ccc(F)c(C(F)(F)F)c2)S(=O)(=O)c2ccccc2)sc2ccccc12 [Compound 508, N-(4-Fluoro-3-trifluoromethyl-benzyl)-N-(3-methanesulfonylamino-benzo[b]thiophen-2-yl)-benzenesulfonamide]	47	–	–
CC(=O)Nc1c(N(Cc2ccc(F)c(C(F)(F)F)c2)S(=O)(=O)c2ccccc2)sc2ccccc12 [Compound 509, N-{2-[Benzenesulfonyl-(4-fluoro-3-trifluoromethyl-benzyl)-amino]-benzo[b]thiophen-3-yl}-acetamide]	100	–	32
Cc1c(N(Cc2ccc(F)c(C(F)(F)F)c2)S(=O)(=O)CCC(=O)O)sc2ccccc12 [Compound 510, N-(4-Fluoro-3-trifluoromethyl-benzyl)-N-(3-methyl-benzo[b]thiophen-2-yl)-2-carboxy-ethanesulfonamide]	102	–	11
